In the supplement of paper PMC5844555:

Assays:
Assay in all cases: 3' UTR reporter interaction score (median-centred robust z-score of log2 firefly/Renilla activity); higher = less repression of the 3' UTR reporter
Conditions in all cases: HEK293T; 48 h
FBXW7 = test system: FBXW7
How it was run: (§1)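 Firefly and Renilla luciferase activities were read 48 h post-transfection in HEK293T cells (10,000/well, 96-well plates). The cells had received 100 ng firefly luc2P reporter bearing the gene's 3' UTR, 20 ng Renilla pRL-TK control and 2.5 pmol miRNA mimic via DharmaFECT Duo. The interaction score, where more negative means interaction, is a per-plate robust z-score (median, median absolute deviation) of the log firefly/Renilla ratio, median-centred per miRNA and averaged over at least two independent screens.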

MYC = test system: MYC
How it was run: as §1

MYCN = test system: MYCN
How it was run: as §1

PHF6 = test system: PHF6
How it was run: as §1

MYT1L = test system: MYT1L
How it was run: as §1

PHOX2B = test system: PHOX2B
How it was run: as §1

RB1 = test system: RB1
How it was run: as §1

BRCA2 = test system: BRCA2
How it was run: as §1

MYB = test system: MYB
How it was run: as §1

EZH2 = test system: EZH2
How it was run: as §1

ZEB2 = test system: ZEB2
How it was run: as §1

TP53 = test system: TP53
How it was run: as §1

HRAS = test system: HRAS
How it was run: as §1

NOTCH1 = test system: NOTCH1
How it was run: as §1

## AAAAGCUGGGUUGAGAGGGCGAA
FBXW7
  3' UTR reporter interaction score: 0.0632
MYC
  3' UTR reporter interaction score: 0.0971
MYCN
  3' UTR reporter interaction score: 0.121
PHF6
  3' UTR reporter interaction score: 0.0922
MYT1L
  3' UTR reporter interaction score: -0.165
PHOX2B
  3' UTR reporter interaction score: -1.64
RB1
  3' UTR reporter interaction score: 0.499
BRCA2
  3' UTR reporter interaction score: 0.138
MYB
  3' UTR reporter interaction score: 1.19
EZH2
  3' UTR reporter interaction score: -2.65
ZEB2
  3' UTR reporter interaction score: 1.15
TP53
  3' UTR reporter interaction score: -0.479
HRAS
  3' UTR reporter interaction score: -0.583
NOTCH1
  3' UTR reporter interaction score: 0.666

## AAAAGUGCUUACAGUGCAGGUAGC
FBXW7
  3' UTR reporter interaction score: -0.263
MYC
  3' UTR reporter interaction score: 0.278
MYCN
  3' UTR reporter interaction score: -0.211
PHF6
  3' UTR reporter interaction score: 1.56
MYT1L
  3' UTR reporter interaction score: -1.75
PHOX2B
  3' UTR reporter interaction score: -0.496
RB1
  3' UTR reporter interaction score: 0.176
BRCA2
  3' UTR reporter interaction score: 0.703
MYB
  3' UTR reporter interaction score: -0.0116
EZH2
  3' UTR reporter interaction score: -0.783
ZEB2
  3' UTR reporter interaction score: 0.747
TP53
  3' UTR reporter interaction score: -0.24
HRAS
  3' UTR reporter interaction score: 0.892
NOTCH1
  3' UTR reporter interaction score: 0.451

## AAAAUGGUUCCCUUUAGAGUGUU
FBXW7
  3' UTR reporter interaction score: 0.697
MYC
  3' UTR reporter interaction score: 0.494
MYCN
  3' UTR reporter interaction score: 0.195
PHF6
  3' UTR reporter interaction score: 0.573
MYT1L
  3' UTR reporter interaction score: 0.818
PHOX2B
  3' UTR reporter interaction score: -0.183
RB1
  3' UTR reporter interaction score: -2.85
BRCA2
  3' UTR reporter interaction score: -1.38
MYB
  3' UTR reporter interaction score: -0.486
EZH2
  3' UTR reporter interaction score: 0.888
ZEB2
  3' UTR reporter interaction score: -1.19
TP53
  3' UTR reporter interaction score: -1.35
HRAS
  3' UTR reporter interaction score: 0.747
NOTCH1
  3' UTR reporter interaction score: -2.3

## AAACAAACAUGGUGCACUUCUUU
FBXW7
  3' UTR reporter interaction score: -0.367
MYC
  3' UTR reporter interaction score: 0.601
MYCN
  3' UTR reporter interaction score: 0.437
PHF6
  3' UTR reporter interaction score: -1.41
MYT1L
  3' UTR reporter interaction score: -1.89
PHOX2B
  3' UTR reporter interaction score: 0.00827
RB1
  3' UTR reporter interaction score: 1.09
BRCA2
  3' UTR reporter interaction score: -0.147
MYB
  3' UTR reporter interaction score: 0.209
EZH2
  3' UTR reporter interaction score: 1.82
ZEB2
  3' UTR reporter interaction score: -0.365
TP53
  3' UTR reporter interaction score: -0.293
HRAS
  3' UTR reporter interaction score: -0.444
NOTCH1
  3' UTR reporter interaction score: 0.581

## AAACCUGUGUUGUUCAAGAGUC
FBXW7
  3' UTR reporter interaction score: 0.0167
MYC
  3' UTR reporter interaction score: -0.2
MYCN
  3' UTR reporter interaction score: -0.75
PHF6
  3' UTR reporter interaction score: -0.148
MYT1L
  3' UTR reporter interaction score: -0.496
PHOX2B
  3' UTR reporter interaction score: -2.54
RB1
  3' UTR reporter interaction score: -0.803
BRCA2
  3' UTR reporter interaction score: 1.31
MYB
  3' UTR reporter interaction score: -0.47
EZH2
  3' UTR reporter interaction score: 0.928
ZEB2
  3' UTR reporter interaction score: -1.07
TP53
  3' UTR reporter interaction score: 0.0666
HRAS
  3' UTR reporter interaction score: 0.374
NOTCH1
  3' UTR reporter interaction score: 0.0529

## AAACUACUGAAAAUCAAAGAU
FBXW7
  3' UTR reporter interaction score: -0.0213
MYC
  3' UTR reporter interaction score: 0.0375
MYCN
  3' UTR reporter interaction score: -0.411
PHF6
  3' UTR reporter interaction score: 0.0968
MYT1L
  3' UTR reporter interaction score: -0.7
PHOX2B
  3' UTR reporter interaction score: -0.331
RB1
  3' UTR reporter interaction score: 0.321
BRCA2
  3' UTR reporter interaction score: 0.536
MYB
  3' UTR reporter interaction score: 0.63
EZH2
  3' UTR reporter interaction score: -0.0901
ZEB2
  3' UTR reporter interaction score: -1.71
TP53
  3' UTR reporter interaction score: 0.261
HRAS
  3' UTR reporter interaction score: -0.566
NOTCH1
  3' UTR reporter interaction score: -0.667

## AAACUCUACUUGUCCUUCUGAGU
FBXW7
  3' UTR reporter interaction score: 2.09
MYC
  3' UTR reporter interaction score: -0.658
MYCN
  3' UTR reporter interaction score: -0.333
PHF6
  3' UTR reporter interaction score: -0.863
MYT1L
  3' UTR reporter interaction score: -0.888
PHOX2B
  3' UTR reporter interaction score: 0.571
RB1
  3' UTR reporter interaction score: 0.409
BRCA2
  3' UTR reporter interaction score: 1.32
MYB
  3' UTR reporter interaction score: 0.312
EZH2
  3' UTR reporter interaction score: -0.108
ZEB2
  3' UTR reporter interaction score: -1.55
TP53
  3' UTR reporter interaction score: 0.757
HRAS
  3' UTR reporter interaction score: 0.16
NOTCH1
  3' UTR reporter interaction score: 0.753

## AAAGACAUAGGAUAGAGUCACCUC
FBXW7
  3' UTR reporter interaction score: 1.01
MYC
  3' UTR reporter interaction score: -0.142
MYCN
  3' UTR reporter interaction score: -0.0475
PHF6
  3' UTR reporter interaction score: -0.548
MYT1L
  3' UTR reporter interaction score: -1.82
PHOX2B
  3' UTR reporter interaction score: 0.476
RB1
  3' UTR reporter interaction score: -0.442
BRCA2
  3' UTR reporter interaction score: -0.417
MYB
  3' UTR reporter interaction score: 0.438
EZH2
  3' UTR reporter interaction score: -0.299
ZEB2
  3' UTR reporter interaction score: 0.2
TP53
  3' UTR reporter interaction score: 0.557
HRAS
  3' UTR reporter interaction score: -0.101
NOTCH1
  3' UTR reporter interaction score: -1.33

## AAAGCGCUUCCCUUCAGAGUGU
FBXW7
  3' UTR reporter interaction score: 1.07
MYC
  3' UTR reporter interaction score: -0.758
MYCN
  3' UTR reporter interaction score: -0.904
PHF6
  3' UTR reporter interaction score: 0.134
MYT1L
  3' UTR reporter interaction score: -0.332
PHOX2B
  3' UTR reporter interaction score: 1.41
RB1
  3' UTR reporter interaction score: -1.21
BRCA2
  3' UTR reporter interaction score: -0.304
MYB
  3' UTR reporter interaction score: 0.692
EZH2
  3' UTR reporter interaction score: -0.357
ZEB2
  3' UTR reporter interaction score: -0.49
TP53
  3' UTR reporter interaction score: 0.336
HRAS
  3' UTR reporter interaction score: -0.152
NOTCH1
  3' UTR reporter interaction score: 0.385
